PubChem BioAssay AID1259375 (The Scripps Research Institute Molecular Screening Center, 2018)
pIC50: −log10 of the molar value. The source made the active and inactive calls. How the calls were made is not given here.

target: Microphthalmia-associated transcription factor (Homo sapiens) (UniProt O75030); assay: MITF inhibitors by FRET titration, dose response, biochemical, high throughput (AID 1259375); conditions: FRET biochemical assay, MITF inhibition;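 further: FRET between CFP-tagged and YFP-tagged MITF protein partners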
Sequence (O75030 whole entry, looked up): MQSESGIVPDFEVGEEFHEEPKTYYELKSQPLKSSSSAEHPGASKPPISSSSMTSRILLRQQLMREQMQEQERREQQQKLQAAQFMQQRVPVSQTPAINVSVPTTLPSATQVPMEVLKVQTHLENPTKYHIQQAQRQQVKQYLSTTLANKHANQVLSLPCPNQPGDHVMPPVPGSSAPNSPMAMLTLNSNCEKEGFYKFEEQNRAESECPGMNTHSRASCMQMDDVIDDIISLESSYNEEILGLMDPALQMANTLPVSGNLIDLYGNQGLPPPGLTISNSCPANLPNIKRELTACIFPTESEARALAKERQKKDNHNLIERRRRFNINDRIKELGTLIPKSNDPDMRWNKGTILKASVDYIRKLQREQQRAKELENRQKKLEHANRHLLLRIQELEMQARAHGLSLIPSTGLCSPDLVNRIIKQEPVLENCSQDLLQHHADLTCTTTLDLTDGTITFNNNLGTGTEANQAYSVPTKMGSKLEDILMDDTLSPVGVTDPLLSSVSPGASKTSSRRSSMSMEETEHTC

SMILES | IC50 | pIC50
O=C1N[C@@H](Cc2ccc(Cl)cc2)C(=O)N2CCN(C(=O)NCc3ccccc3)C[C@H]12 | > 6.48 µM (inactive) | –
O=c1[nH]cccc1-c1ccc(Nc2nccc(-c3ccc4nc(C5CC5)[nH]c(=O)c4c3)n2)cc1 | > 6.48 µM (inactive) | –
CN(c1cccc(NS(=O)(=O)c2ccc([N+](=O)[O-])cc2)c1)S(C)(=O)=O | > 6.48 µM (inactive) | –
O=C(NC1CCCCC1)N1CCN2C(=O)[C@H]3CCCN3C(=O)[C@H]2C1 | > 6.48 µM (inactive) | –
C[C@H]1C(=O)N2CCN(C(=O)NCc3ccccc3)C[C@@H]2C(=O)N1C | > 6.48 µM (inactive) | –
C[C@H](O)[C@H]1NC(=O)[C@H]2CN(C(=O)NCc3ccccc3)CCN2C1=O | > 6.48 µM (inactive) | –
C[C@@H](OCc1ccccc1)[C@@H]1NC(=O)[C@H]2CN(C(=O)NC3CCCCC3)CCN2C1=O | > 6.48 µM (inactive) | –
CN1CCN(CCNC(=O)c2cccc(CN(C(=O)c3nc4ccc(-c5cn[nH]c5)cc4s3)C3CC3)c2)CC1 | > 6.48 µM (inactive) | –
O=C1N[C@@H](CSCc2ccccc2)C(=O)N2CCN(C(=O)NC3CCCCC3)C[C@H]12 | > 6.48 µM (inactive) | –
COC(=O)CSc1nnc(-c2cnccn2)n1C | > 6.48 µM (inactive) | –
CCCCOc1ccc(C(=O)N/C(=C/c2ccco2)C(=O)O)cc1 | inactive | –
O=C1N[C@H](Cc2ccccc2)C(=O)N2CCN(C(=O)NC3CCCCC3)C[C@H]12 | > 6.48 µM (inactive) | –
NC(=O)CSc1ccc(C(N)=O)cc1[N+](=O)[O-] | > 7.11 µM (inactive) | –
O=C(O)CSc1cc(Cl)c2nonc2c1[N+](=O)[O-] | – | 5.38
CC(Oc1ccc2c(C(F)(F)F)cc(=O)oc2c1)C(=O)NN (configuration not stated) | > 6.56 µM (inactive) | –
Cc1cc2ncn(Cc3noc(-c4ccco4)n3)c2cc1C | > 6.48 µM (inactive) | –
Cc1ccc(C(=O)N/C(=C/c2ccc([N+](=O)[O-])o2)C(=O)O)cc1 | > 5.88 µM (inactive) | –
O=S(=O)(c1ccccc1C(F)(F)F)N1CCC(c2nc3ccccc3[nH]2)CC1 | > 6.48 µM (inactive) | –
O=C(OCN1C(=O)c2ccccc2C1=O)c1cc2c(s1)CCC2 | > 7.13 µM (inactive) | –
O=C1N[C@H](Cc2ccccc2)C(=O)N2CCN(C(=O)NCc3ccccc3)C[C@H]12 | > 6.48 µM (inactive) | –
O=C1N[C@H](CO)C(=O)N2CCN(C(=O)NCc3ccccc3)C[C@H]12 | > 6.48 µM (inactive) | –
O=S(=O)(N=S(=O)(/C=C/c1ccccc1)c1ccccc1)c1ccccc1 (configuration not stated) | > 5.36 µM (inactive) | –
NC1(C(Cl)(Cl)Cl)Oc2ccccc2O1 | > 6.48 µM (inactive) | –

SMILES | IC50 | pIC50
C=CCc1cc(C)ccc1OCCCCn1ccnc1 | > 6.48 µM (inactive) | –
COC(=O)CCc1cc2c(C)cc(=O)oc2cc1OCc1ccc(C)cc1 | > 6.48 µM (inactive) | –
C[C@H]1C(=O)N2CCN(C(=O)NC3CCCCC3)C[C@@H]2C(=O)N1C | > 6.48 µM (inactive) | –
Cc1c(NC(=O)C(C)OC(=O)c2cc3c(s2)CCC3)c(=O)n(-c2ccccc2)n1C (configuration not stated) | > 6.7 µM (inactive) | –
CCN1CCN(Cc2coc3ccccc3c2=O)CC1 | > 6.48 µM (inactive) | –
CC(=O)NS(=O)(=O)c1ccc(NC(=O)c2ccc([N+](=O)[O-])o2)cc1 | > 6.61 µM (inactive) | –
Cc1nc(C)n(-c2ccc(Nc3cc(-n4cc(N(c5cccnc5)c5cccnc5)cn4)ccn3)cc2)n1 | > 6.48 µM (inactive) | –
CN(C)[C@@H]1C(=O)C(C(=O)NCN2CCCC2)=C(O)[C@@]2(O)C(=O)C3=C(O)c4c(O)cccc4[C@@](C)(O)[C@H]3C[C@@H]12 | > 6.48 µM (inactive) | –
O=C1CCCC2=C1C(c1ccc([N+](=O)[O-])o1)C1=C(CCCC1=O)O2 | > 7.09 µM (inactive) | –
N#C/C(=C(/O)COC(=O)c1cc2c(s1)CCC2)c1nc2ccccc2[nH]1 | > 7.1 µM (inactive) | –
CN(N=O)c1cc(O)ccc1O | > 6.48 µM (inactive) | –
O=c1c(O)c(-c2ccc(O)cc2O)oc2cc(O)cc(O)c12 | > 6.48 µM (inactive) | –
O=c1c2ccccc2nc(-c2ccccc2)n1-c1ccccc1O | > 6.5 µM (inactive) | –
CC1=C(C#N)C(c2cc3c(cc2[N+](=O)[O-])OCO3)C2=C(CCCC2=O)N1 (configuration not stated) | > 6.48 µM (inactive) | –
CCOc1ccccc1N1CCN(Cc2cc(OC)c(O)c([N+](=O)[O-])c2)CC1 | > 6.48 µM (inactive) | –
O=c1[nH]c(/C=C/c2ccco2)nc(O)c1[N+](=O)[O-] | inactive | –
CC[C@H](C)[C@@H]1NC(=O)[C@H]2CN(C(=O)NCc3ccccc3)CCN2C1=O | > 6.48 µM (inactive) | –
CCCOc1ccc(N)cc1N | > 6.22 µM (inactive) | –
Cc1cccc(CN2CCN(S(=O)(=O)c3ccccc3[N+](=O)[O-])CC2)c1 | > 5.08 µM (inactive) | –
COc1ccc(CN2CCN(Cc3cccc(Cl)c3)CC2)cc1Br | > 6.11 µM (inactive) | –
Cc1ccc(O)c(NC(=S)NC(=O)/C=C/c2ccco2)c1 | > 6.48 µM (inactive) | –
CNC(=O)Nc1ccc2nc(-c3ccco3)c(-c3ccco3)nc2c1 | > 6.48 µM (inactive) | –
COC(=O)c1ccc(=O)c2nc3/c(=C/O)c(O)cc(=O)c3[nH]c12 | – | 5.69

SMILES | IC50 | pIC50
CCOC(=O)C1C2NC(=S)N(CC)C1(C)Oc1ccc(Cl)cc12 (configuration not stated) | > 8.6 µM (inactive) | –
C=C1C(C(=O)NCc2ccco2)C1C(=O)NCc1ccco1 (configuration not stated) | > 7.72 µM (inactive) | –
CN(C)CCN(C(=O)OCc1ccccc1)c1cc(-c2cn[nH]c2)ccc1NC(=O)OCc1ccccc1 | > 6.48 µM (inactive) | –
Cc1cncc2c(S(=O)(=O)N3CC[C@@H](NC(=O)C(O)c4ccc(F)cc4F)C3)cccc12 (some centres not stated) | > 6.48 µM (inactive) | –
COCCNC(=O)COC(=O)c1cc(-c2ccco2)nc2ccccc12 | > 6.59 µM (inactive) | –
Nc1cc(Br)cnc1N | > 8.62 µM (inactive) | –
COC(=O)CN(CCN(CC(=O)O)CC(=O)OC)CC(=O)O | > 5.37 µM (inactive) | –
O=C(OC1CCCC1=O)c1ccc(Cl)c(S(=O)(=O)N2CCOCC2)c1 (configuration not stated) | > 6.69 µM (inactive) | –
Nc1cc2c(S(=O)(=O)O)cc(S(=O)(=O)O)cc2cc1S(=O)(=O)O | > 6.48 µM (inactive) | –
N#C/C(=C\c1nn(-c2ccccc2)c(N)c1C#N)c1ccco1 | > 6.48 µM (inactive) | –
COc1ccc(C)cc1NS(=O)(=O)c1ccc2c(c1)CCC(=O)N2 | > 6.48 µM (inactive) | –
N/C(=N\[N+](=O)[O-])N/N=C\c1ccc(-c2ccc(O)c(C(=O)O)c2)o1 | – | 5.31
CN(C)c1ccc(O)c2c1C[C@H]1C[C@H]3[C@H](N(C)C)C(=O)C(C(N)=O)=C(O)[C@@]3(O)C(=O)C1=C2O | – | 5.51
O=C(/C=C/c1ccco1)NCCCCCCNC(=O)/C=C/c1ccco1 | > 6.48 µM (inactive) | –
CC[C@@H]1NC(=O)[C@H]2CN(C(=O)NC3CCCCC3)CCN2C1=O | > 6.48 µM (inactive) | –
COC(=O)CN1C(=O)S/C(=C/c2ccc([N+](=O)[O-])o2)C1=O | > 6.48 µM (inactive) | –
O=C(CCc1ccco1)Nc1ccc(-c2cn3c4c(nnc3n2)CCCC4)cc1 | > 6.48 µM (inactive) | –
CN(C)C1C(=O)C(C(N)=O)=C(O)C2(O)C(=O)C3=C(O)c4c(O)cccc4C(C)(O)C3CC12 (configuration not stated) | > 6.48 µM (inactive) | –
COc1cc(/C=N/N=C2\NC(=O)C(CC(=O)O)S2)ccc1OCc1ccc(C)cc1 (configuration not stated) | > 6.48 µM (inactive) | –
CC(C)C[C@@H]1NC(=O)[C@H]2CN(C(=O)NCc3ccccc3)CCN2C1=O | > 6.48 µM (inactive) | –
CCN(CC)c1ccc(C(c2c(C)[nH][nH]c2=O)c2c(C)[nH][nH]c2=O)cc1 | – | 5.53
CN1C(=O)[C@H]2CN(C(=O)NC3CCCCC3)CCN2C(=O)[C@@H]1Cc1ccccc1 | > 6.48 µM (inactive) | –
C=CC1=C(C)C2=Cc3c(C=C)c(C)c4[n]3[Sn+2][n]3c(c(C)c(CCC(=O)O)c3=CC3=NC(=C4)C(C)=C3CCC(=O)O)=CC1=N2 | > 6.48 µM (inactive) | –

SMILES | IC50 | pIC50
O=C(CCCCC1SCC2NC(=O)NC21)NC1(c2ccc3c(c2)OCO3)CCCC1 (configuration not stated) | > 6.48 µM (inactive) | –
O=[N+]([O-])c1ccc(N/N=C/c2ccco2)c(S(=O)(=O)N2CCOCC2)c1 | > 6.48 µM (inactive) | –
Cc1ccc(-c2ncn(-c3ccc(Nc4cc(-n5cnc(Nc6ccccc6)n5)c(F)cn4)cc3)n2)cn1 | > 6.48 µM (inactive) | –
CCOC(=O)N1CCN(C(=S)Nc2ccc(OCC)cc2)CC1 | > 6.48 µM (inactive) | –
CC(C)C[C@@H]1NC(=O)[C@H]2CN(C(=O)NC3CCCCC3)CCN2C1=O | > 6.48 µM (inactive) | –
COc1nccnc1NS(=O)(=O)c1ccc(NC(=O)c2ccc([N+](=O)[O-])c(C)c2)cc1 | > 6.48 µM (inactive) | –
NC(=O)NC(=O)COC(=O)c1c2c(nc3ccccc13)/C(=C\c1ccco1)CCC2 | > 7.04 µM (inactive) | –
O=C(O)c1cc2ncc(-c3n[nH]c(-c4cnc5cc(C(=O)O)nn5c4)c3[N+](=O)[O-])cn2n1 | > 6.48 µM (inactive) | –
O=C(NCCO)c1cccc(-c2cccs2)c1 | > 8.06 µM (inactive) | –
Cc1cccc(C(=O)Nc2c3c(nn2-c2ccc(F)cc2)CSC3)c1 | > 5.53 µM (inactive) | –
CCCCn1c(=O)[nH]c(=O)c2c1nc(-c1ccc([N+](=O)[O-])o1)n2C | > 7 µM (inactive) | –
O=c1[nH]cnc2nc(-c3ccco3)c(-c3ccco3)nc12 | > 7.63 µM (inactive) | –
O=C(O)c1cc(S(=O)(=O)Nc2ccncc2)ccc1O | > 7.05 µM (inactive) | –
O=C1N[C@@H](Cc2c[nH]c3ccccc23)C(=O)N2CCN(C(=O)NC3CCCCC3)C[C@H]12 | > 6.48 µM (inactive) | –
CN(C)CCOCCOc1ccccc1-c1ccccc1 | > 6.48 µM (inactive) | –
O=C(/C=C/c1ccco1)NCc1cccc(CNC(=O)/C=C/c2ccco2)c1 | > 6.48 µM (inactive) | –
NC(=O)/C(=C\c1cccc([N+](=O)[O-])c1)NC(=O)c1ccc(Br)cc1 | > 6.48 µM (inactive) | –
Cc1c(NC(=S)NC(=O)/C=C/c2ccco2)cccc1C(=O)O | – | 5.42
NC(=O)c1ccc(-c2cccs2)s1 | > 7.32 µM (inactive) | –
Cc1ccc(C)n1C(Cc1c[nH]c2ccccc12)C(=O)O (configuration not stated) | > 6.48 µM (inactive) | –
CCN(CCN(C)C)Cc1ccc(F)cc1 | > 6.48 µM (inactive) | –
O=C(c1ccncc1)N1CCN(Cc2ccccc2[N+](=O)[O-])CC1 | > 6.13 µM (inactive) | –
O=S(=O)(O)c1ccc(N/N=C2\CCc3ccccc32)cc1 | > 6.48 µM (inactive) | –
